Source: patent publication US11279691B2, “Substituted pyridine and pyrazine compounds as PDE4 inhibitors” (Dart Neuroscience LLC, priority 2013, dated 2022)

Target: T1, PDE4D3 (Homo sapiens, UniProt Q08499)
T1 construct: GST
Format: biochemical
Details: GST-tagged PDE4D3, 200 nM FAM-cAMP, 11-point dose-response; read-out: PD4d3 pEC50 (converted)

T1 sequence (Q08499 1-673 isoform Q08499-2): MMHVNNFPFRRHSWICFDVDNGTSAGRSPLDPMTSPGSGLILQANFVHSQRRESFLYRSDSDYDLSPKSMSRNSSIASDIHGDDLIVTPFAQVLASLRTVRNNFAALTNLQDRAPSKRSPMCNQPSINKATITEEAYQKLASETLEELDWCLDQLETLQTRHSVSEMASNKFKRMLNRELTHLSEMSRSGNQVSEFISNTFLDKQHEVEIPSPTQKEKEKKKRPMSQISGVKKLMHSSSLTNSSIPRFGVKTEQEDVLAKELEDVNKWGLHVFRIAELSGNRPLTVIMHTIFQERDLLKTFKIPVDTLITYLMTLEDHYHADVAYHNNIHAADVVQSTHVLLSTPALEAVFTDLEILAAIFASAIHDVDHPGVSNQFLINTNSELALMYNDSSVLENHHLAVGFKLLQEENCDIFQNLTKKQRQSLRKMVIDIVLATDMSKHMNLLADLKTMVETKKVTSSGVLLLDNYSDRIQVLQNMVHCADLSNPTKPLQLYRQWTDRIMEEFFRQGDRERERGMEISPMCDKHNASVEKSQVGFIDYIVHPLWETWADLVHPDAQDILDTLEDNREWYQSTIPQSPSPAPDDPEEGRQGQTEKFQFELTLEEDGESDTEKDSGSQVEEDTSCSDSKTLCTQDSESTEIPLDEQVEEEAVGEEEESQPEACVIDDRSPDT

Row | Structure (SMILES) | EC50 [nM]
1 | COc1ncc(Cc2cnc(NCCO)nc2)cc1-c1cccc(Cl)c1 [Example 391, 2-[(5-{[5-(3-Chlorophenyl)-6-methoxypyridin-3-yl]methyl}pyrimidin-2-yl)amino]ethan-1-ol] | < 100
2 | CCOc1ncc(Cn2nnc(C)n2)cc1-c1ccc(F)cc1 [Example 392, 2-Ethoxy-3-(4-fluorophenyl)-5-[(5-methyl-2H-1,2,3,4-tetrazol-2-yl)methyl]pyridine] | < 100
3 | CCOc1ncc(Cn2nnc(C)n2)cc1-c1ccc(F)c(F)c1 [Example 393, 3-(3,4-Difluorophenyl)-2-ethoxy-5-[(5-methyl-2H-1,2,3,4-tetrazol-2-yl)methyl]pyridine] | < 100
4 | CCOc1ncc(Cn2nnc(C)n2)cc1-c1ccnc(OC(F)F)c1 [Example 394, 3-[2-(Difluoromethoxy)pyridin-4-yl]-2-ethoxy-5-[(5-methyl-2H-1,2,3,4-tetrazol-2-yl)methyl]pyridine] | < 100
5 | CCOc1ncc(Cn2nnnc2C)cc1-c1ccc(F)c(F)c1 [Example 395, 3-(3,4-Difluorophenyl)-2-ethoxy-5-[(5-methyl-1H-1,2,3,4-tetrazol-1-yl)methyl]pyridine] | < 100
6 | CCOc1ncc(Cn2nnnc2C)cc1-c1ccnc(OC(F)F)c1 [Example 396, 3-[2-(Difluoromethoxy)pyridin-4-yl]-2-ethoxy-5-[(5-methyl-1H-1,2,3,4-tetrazol-1-yl)methyl]pyridine] | < 100
7 | CCOc1ncc(Cn2nnnc2C)cc1-c1ccc(Cl)c(F)c1 [Example 397, 3-(4-Chloro-3-fluorophenyl)-2-ethoxy-5-[(5-methyl-1H-1,2,3,4-tetrazol-1-yl)methyl]pyridine] | 100 to 1000
8 | CCOc1ncc(Cn2nnnc2C)cc1-c1ccc(F)c(Cl)c1 [Example 398, 3-(3-Chloro-4-fluorophenyl)-2-ethoxy-5-[(5-methyl-1H-1,2,3,4-tetrazol-1-yl)methyl]pyridine] | < 100
9 | CCOc1ncc(Cn2nnnc2C)cc1-c1cccc(OC(F)F)c1 [Example 399, 3-[3-(Difluoromethoxy)phenyl]-2-ethoxy-5-[(5-methyl-1H-1,2,3,4-tetrazol-1-yl)methyl]pyridine] | < 100
10 | CCOc1cc(-c2cc(Cn3nnnc3C)cnc2OCC)ccn1 [Example 400, 2-Ethoxy-3-(2-ethoxypyridin-4-yl)-5-[(5-methyl-1H-1,2,3,4-tetrazol-1-yl)methyl]pyridine] | 100 to 1000
11 | CCOc1cccc(-c2cc(Cn3nnnc3C)cnc2OCC)c1 [Example 401, 2-Ethoxy-3-(3-ethoxyphenyl)-5-[(5-methyl-1H-1,2,3,4-tetrazol-1-yl)methyl]pyridine] | 100 to 1000
12 | CCOc1ncc(Cn2nnnc2C)cc1-c1cc(F)cc(OC)c1 [Example 402, 2-Ethoxy-3-(3-fluoro-5-methoxyphenyl)-5-[(5-methyl-1H-1,2,3,4-tetrazol-1-yl)methyl]pyridine] | 100 to 1000
13 | CCOc1ncc(Cn2cc(C(F)F)nc2C)nc1-c1cccc(Cl)c1 [Example 403, 3-(3-Chlorophenyl)-5-{[4-(difluoromethyl)-2-methyl-1H-imidazol-1-yl]methyl}-2-ethoxypyrazine] | 100 to 1000
14 | CCOc1cc(-c2cc(Cc3cnc(CO)c(F)c3)cnc2OCC(F)F)ccn1 [Example 404, (5-{[6-(2,2-Difluoroethoxy)-5-(2-ethoxypyridin-4-yl)pyridin-3-yl]methyl}-3-fluoropyridin-2-yl)methanol] | < 100
15 | CCOc1ncc(Cc2cnc(CO)c(F)c2)cc1-c1ccnc(OC(F)F)c1 [Example 405, [5-({5-[2-(Difluoromethoxy)pyridin-4-yl]-6-ethoxypyridin-3-yl}methyl)-3-fluoropyridin-2-yl]methanol] | < 100
16 | Cc1nc(CO)cn1Cc1cnc(OCC(F)F)c(-c2cccc(Cl)c2)c1 [Example 406, (1-{[5-(3-Chlorophenyl)-6-(2,2-difluoroethoxy)pyridin-3-yl]methyl}-2-methyl-1H-imidazol-4-yl)methanol] | < 100
17 | COc1cc(-c2cc(Cn3cnc(N)n3)cnc2OC)ccc1F [Example 407, 1-{[5-(4-Fluoro-3-methoxyphenyl)-6-methoxypyridin-3-yl]methyl}-1H-1,2,4-triazol-3-amine] | 1000 to 10000
18 | CCOC(=O)Cc1ccc(Cc2cnc(OC)c(-c3ccc(F)c(F)c3)c2)cc1 [Intermediate 49, Ethyl 2-(4-{[5-(3,4-difluorophenyl)-6-methoxypyridin-3-yl]methyl}phenyl)acetate] | < 100
19 | CCOC(=O)Cc1ccc(Cc2cnc(OC)c(-c3cccc(Cl)c3)c2)cc1 [Intermediate 50, Ethyl 2-(4-{[5-(3-chlorophenyl)-6-methoxypyridin-3-yl]methyl}phenyl)acetate] | 100 to 1000
